# Source: US20230141863A1, “Small Molecule Inhibitors Targeting the Sodium Channel Tamoxifen Receptor and Uses Thereof” (Northwestern University, priority 2021, published 2023)
# How the values were obtained:
# [1] = molecular target: T1, human Nav1.7 (Homo sapiens, UniProt Q15858); assay: Voltage clamp of heterologously expressed Nav1.7; assay type: cell-based; conditions: Hill fit, printed for ND-Tam and 4OH-Tam together
# T1 construct: expressed in transfected cells; host or cells: HEK cells, transient transfection with lipofectamine
# Protocol: While no clear drug-receptor interactions were determined within Siteout, the S6 E220 side chains formed hydrogen bond interactions with the ether and amine moieties of the ND-Tam molecules found at Sitein. […] After structural alignment of the crystalized NavMs-Tam complex with the cryo EM Nav1.7+b1+b2 channel coordinates, the S6 side chain hydroxyl in DII (S969) and the carboxyl side chains in DIII (E1458) and DIV (D1761) observed in the human channel were nearly superimposable with E220 of the prokaryotic Nav subunits. In addition, the distances from the drug ether and amines were within acceptable distances (2.8-3.1 Å) for hydrogen bond formation for all three site chains (FIG. 2B). […]
# Plasmids encoding the human version of channels Nav1.1, 1.6, and 1.7 were co-transfected with TRES GFP into HEK cell lines for whole-cell voltage clamp studies (American Type Culture Collection). […] Plasma membrane currents were recorded using borosilicate glass electrodes polished to resistances of […]. Sodium currents conducted by heterologously expressed Navs were recorded using the following solutions (in mM). […] Endogenous DRG sodium currents were recorded using an intracellular solution consisting of 70 CsCl, 70 CsF, 2 EGTA, 5 HEPES, and 5 NaCl; the pH was adjusted to 7.4 with CsOH. […]
# [2] = system: T2, endogenous voltage-gated sodium channels expressed in murine DRG neurons; assay: Whole cell voltage clamp of endogenous sodium currents (INa) in cultured DRG sensory neurons; assay type: cell-based, mouse; conditions: for voltage dependence of INa inhibition (in words): −60 mV versus −100 mV holding potential
# T2 construct: other: waiting for 5 minutes after removal; ND-Tam potency against DRG INa (IC50); other: DRG neurons, −60 mV holding potential; other: 3 μM ND-Tam treatment; other: DR
# Protocol: FIG. 1. Tamoxifen metabolites inhibit endogenous voltage-gated sodium channels expressed in murine DRG neurons. A) DIC and fluorescence images of voltage clamped DRG neuron isolated and cultured from an Nav1.8-tomato mouse. Continuity with the patched neuron is indicted by the GFP (Alexa Fluor 488 dye 1 nM) loaded into the glass patch electrode. B) Top, exemplar sodium currents (INa) recorded in control saline and two concentrations of N-desmethyl tamoxifen (ND-Tam) from a voltage-clamped DRG neuron. INa was activated by 0.2 Hz train of 50 ms depolarizations to −10 mV from −100 mV holding potential. Bottom, time course of peak INa inhibition during control conditions and after 5 minutes of extracellular ND-Tam treatment. C) Resulting drug concentration-INa inhibition relationship for ND-Tam fit to the Hill equation. Open symbols represent responses from individual cells and filled symbols represent average response per concentration. Error is equal to S.E.M. (n=11) D) A comparison of the percent INa recovery after 3-10 μM ND-Tam or 1 mM carbamazepine (CBZ) inhibition. INa recovery was assessed after 5 minutes in control saline post drug exposure. Fewer INa recovered from ND-Tam exposure compared to CBZ exposure, 14.3±5.4% and 47.2±9.6%, respectively, and was statistically significant (P=0.03). Error is equal to S.E.M. and the number of cells tested per treatment group is indicated within the parentheses.
# Previously, a unique receptor site for tamoxifen analogues within the prokaryotic sodium channel isolated form Magnetococcus marinus (NavMs)^36 (Sula et al) was crystallographically identified. Because drug occupancy of this receptor caused long lasting inhibition of the NavMs INa, the inventors wondered if these properties would translate into effects against sensory neuron Na s which transmit pain signals. Accordingly, =the potency of ND-Tam and 4OH-Tam was tested against endogenously expressed Na s in cultured DRG sensory neurons isolated from Nav1.8-tdTomato mice by conducting whole cell voltage clamp recordings (FIG. 1A, B). Sodium currents were activated by a 0.2 Hz train of −10 mV depolarizations from a holding potential of −100 mV. The externally applied drug effect was determined after three to five minutes of application of each drug concentration (FIG. 1B). […] As discussed in the introduction, total DRG INa is conducted by the Nav1.1, Nav1.6, Nav1.7, Nav1.8 and Nav1.9 subtypes. To determine if there is any specificity in the potency of tamoxifen analogues against Nav subtypes, human orthologues were heterologously expressed in cell lines (HEK and CHO co-expressing hb1 subunits), and conducted voltage-clamp experiments, as previously performed in the DRG neurons.
# Dorsal root ganglia were isolated using a modified version of the previously described protocol (PMID: 26864470). All animal procedures were approved by the Institutional Animal Care and Use Committee at the Feinberg Medical School, Northwestern University. The spinal columns of 4-6-week-old […] or Nav1.8-Tomato mice (Nav1.8-Td) were removed and DRG neurons from all spinal levels were isolated for primary culture (PMID: 33827672, PMID: 31351964). The collected DRGs, containing both neuronal and non-neuronal cells, were acutely dissociated in DMEM with collagenase IV (2 mg/mL) for 30 minutes, followed by papain (25 U/mL) for 30 minutes. The cells were then triturated, filtered through a 40 μm cell strainer to remove non-dissociated cells, and washed with DMEM. The DRGs were resuspended in 70 μL of pre-warmed growth medium (DMEM F12+Glutamax supplemented with 0.5% FBS, 0.5% penicillin/streptomycin, 1% N-2 supplement, and β-NGF ([…]) added on the day of use) and plated on poly-l-lysine (10 mg/mL) and laminin (25 μg/mL) prepared coverslips. The DRGs were incubated at 37° C. for 2-4 hours before more growth medium was added to the wells. […]
# [3] = system: mice with knee hyperalgesia post DMM surgery; conditions: 20 mg/kg, ~0.85M, PMID: 29563338; cited from earlier work
# [4] = system: mice with knee hyperalgesia post DMM surgery; assay: In vivo osteoarthritis pain model (DMM), knee hyperalgesia after intra-articular injection; parameters: species or system mouse; conditions: 50 μM intra-articular, vehicle 0.1% DMSO; for knee hyperalgesia versus vehicle, direct comparison study (in words): 30 minutes after injection; for knee withdrawal threshold versus vehicle control (in words): through 3 hours after injection
# T1 sequence (Q15858 whole entry): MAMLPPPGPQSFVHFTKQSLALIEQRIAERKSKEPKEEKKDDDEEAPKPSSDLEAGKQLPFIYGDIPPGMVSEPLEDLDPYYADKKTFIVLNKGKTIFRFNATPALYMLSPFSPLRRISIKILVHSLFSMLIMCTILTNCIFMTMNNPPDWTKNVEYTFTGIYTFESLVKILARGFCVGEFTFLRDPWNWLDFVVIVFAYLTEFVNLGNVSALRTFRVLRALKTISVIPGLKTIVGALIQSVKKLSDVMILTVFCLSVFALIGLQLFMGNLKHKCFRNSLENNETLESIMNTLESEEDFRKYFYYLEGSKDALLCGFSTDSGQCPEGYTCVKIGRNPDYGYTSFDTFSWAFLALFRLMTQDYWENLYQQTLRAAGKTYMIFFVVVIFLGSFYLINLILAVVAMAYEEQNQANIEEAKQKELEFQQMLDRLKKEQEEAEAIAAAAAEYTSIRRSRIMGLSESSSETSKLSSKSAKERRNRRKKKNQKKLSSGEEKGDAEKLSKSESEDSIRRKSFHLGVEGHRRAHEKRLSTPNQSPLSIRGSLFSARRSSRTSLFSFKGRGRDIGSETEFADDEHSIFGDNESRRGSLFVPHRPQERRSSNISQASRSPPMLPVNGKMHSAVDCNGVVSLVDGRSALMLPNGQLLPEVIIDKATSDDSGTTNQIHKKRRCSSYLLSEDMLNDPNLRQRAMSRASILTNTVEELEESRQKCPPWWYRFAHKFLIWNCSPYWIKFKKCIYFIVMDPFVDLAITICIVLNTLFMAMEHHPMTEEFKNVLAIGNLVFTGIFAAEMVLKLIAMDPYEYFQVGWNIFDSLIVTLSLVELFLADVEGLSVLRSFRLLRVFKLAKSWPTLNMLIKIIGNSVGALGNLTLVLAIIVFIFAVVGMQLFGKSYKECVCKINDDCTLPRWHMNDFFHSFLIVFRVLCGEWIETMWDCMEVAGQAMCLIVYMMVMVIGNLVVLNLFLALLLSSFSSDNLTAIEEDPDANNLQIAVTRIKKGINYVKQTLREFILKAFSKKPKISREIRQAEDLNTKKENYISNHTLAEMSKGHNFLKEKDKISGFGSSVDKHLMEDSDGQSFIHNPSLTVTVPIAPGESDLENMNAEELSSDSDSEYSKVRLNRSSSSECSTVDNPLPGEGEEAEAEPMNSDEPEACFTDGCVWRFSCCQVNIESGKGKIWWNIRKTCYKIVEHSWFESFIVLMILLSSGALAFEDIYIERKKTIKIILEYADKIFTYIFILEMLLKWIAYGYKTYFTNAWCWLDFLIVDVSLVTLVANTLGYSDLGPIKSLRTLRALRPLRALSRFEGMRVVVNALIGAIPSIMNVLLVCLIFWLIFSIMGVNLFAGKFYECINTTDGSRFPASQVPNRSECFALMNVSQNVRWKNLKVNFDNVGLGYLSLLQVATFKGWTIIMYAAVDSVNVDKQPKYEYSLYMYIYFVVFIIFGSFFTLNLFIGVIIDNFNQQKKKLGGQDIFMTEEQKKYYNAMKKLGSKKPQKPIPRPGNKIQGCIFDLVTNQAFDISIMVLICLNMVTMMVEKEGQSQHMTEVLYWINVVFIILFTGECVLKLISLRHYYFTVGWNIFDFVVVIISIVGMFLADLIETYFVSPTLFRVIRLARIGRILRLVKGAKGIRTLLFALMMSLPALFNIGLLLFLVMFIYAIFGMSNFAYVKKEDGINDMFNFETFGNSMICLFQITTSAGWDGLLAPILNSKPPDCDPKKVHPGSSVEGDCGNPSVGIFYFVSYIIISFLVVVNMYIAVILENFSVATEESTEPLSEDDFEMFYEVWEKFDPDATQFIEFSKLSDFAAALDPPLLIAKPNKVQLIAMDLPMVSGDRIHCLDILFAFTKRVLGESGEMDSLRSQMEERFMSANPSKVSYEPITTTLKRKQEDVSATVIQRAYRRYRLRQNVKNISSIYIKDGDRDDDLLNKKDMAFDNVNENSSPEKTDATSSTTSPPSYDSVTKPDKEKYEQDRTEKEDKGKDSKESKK
slope of concentration-dependence [1],"IC50 ([2]; DRG neurons, −100 mV holding potential, 0.2 Hz train of −10 mV depolarizations, read-out: half maximal potency of INa inhibition (IC50)) [µM]",SMILES,"inhibition of sodium currents recorded from DRG neurons (in words) ([2]; tamoxifen analogs and fragments, FIG. 7B)",voltage dependence of INa inhibition (in words) [2],knee hyperalgesia after local injection of a relatively high dose (in words) [3],"knee hyperalgesia versus vehicle, direct comparison study (in words) [4]",knee withdrawal threshold versus vehicle control (in words) [4]
2.1,3.3,"CC/C(=C(\c1ccc(O)cc1)c1ccc(OCCN(C)C)cc1)c1ccccc1 [4OH-Tam, 4-[(Z)-1-[4-[2-(dimethylamino)ethoxy]phenyl]-2-phenylbut-1-enyl]phenol]",inhibited sodium currents,–,–,–,–
–,–,"NC(=O)N1c2ccccc2C=Cc2ccccc21 [CBZ, carbamazepine, reference compound]",–,most potent when membranes were held at −60 mV,–,–,–
–,–,"CCN(CC)CC(=O)Nc1c(C)cccc1C [lidocaine, reference compound]",–,most potent when membranes were held at −60 mV,able to acutely reverse knee hyperalgesia,effectively inhibited knee hyperalgesia,remained elevated compared to vehicle control through 3 hours after injection
–,–,"C=C(C)[C@@H]1CCC(C)=C[C@H]1c1c(O)cc(CCCCC)cc1O [CBD, cannabidiol, reference compound]",–,followed this trend,–,effectively inhibited knee hyperalgesia,remained elevated compared to vehicle control through 3 hours after injection
